Reference: patent US9708314B2, “Heterocyclic amide compound” (NISSAN CHEMICAL INDUSTRIES, LTD., priority 2013, dated 2017)

What was measured:
Type in all cases: in vivo
Brassica campestris L. = assay: Test Example 4: effect on crop by application to foliage (diluvial soil, plastic box); conditions: Application herbicide amount 320 g/ha; foliage application
Procedure, shortened: (§1)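 Seeds sown in sterilized diluvial soil, covered ~1.5 cm, grown 14 days in greenhouse at 25° C. to 30° C. Emulsion formulation diluted in water to set rate (g/ha) and sprayed onto stems and leaves. Effect scored visually 3 weeks later on 0–5 scale (5 = ≥90% herbicidal ratio, 0 = ≤5%).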

Zea mays = assay: as above; conditions: Application herbicide amount 320 g/ha; foliage application
Procedure, shortened: as §1

Triticum aestivum = assay: as above; conditions: Application herbicide amount 320 g/ha; foliage application
Procedure, shortened: as §1

[1] = system: Beta vulgaris ssp. vulgaris; assay: as above; conditions: Application herbicide amount 320 g/ha; foliage application
Procedure, shortened: as §1

Glycine max = assay: as above; conditions: Application herbicide amount 320 g/ha; foliage application
Procedure, shortened: as §1

Digitaria ciliaris = assay: Test Example 4: herbicidal effect by application to foliage (diluvial soil, plastic box); conditions: Application herbicide amount 320 g/ha; foliage application
Procedure, shortened: as §1

Veronica persica = assay: as above; conditions: Application herbicide amount 320 g/ha; foliage application
Procedure, shortened: as §1

Galium spurium = assay: as above; conditions: Application herbicide amount 320 g/ha; foliage application
Procedure, shortened: as §1

Alopecurus myosuroides = assay: as above; conditions: Application herbicide amount 320 g/ha; foliage application
Procedure, shortened: as §1

Lolium multiflorum Lam. = assay: as above; conditions: Application herbicide amount 320 g/ha; foliage application
Procedure, shortened: as §1

Stellaria media = assay: as above; conditions: Application herbicide amount 320 g/ha; foliage application
Procedure, shortened: as §1

Chenopodium album = assay: as above; conditions: Application herbicide amount 320 g/ha; foliage application
Procedure, shortened: as §1

Amaranthus retroflexus = assay: as above; conditions: Application herbicide amount 320 g/ha; foliage application
Procedure, shortened: as §1

[2] = system: Echinochloa crus-galli var. crus-galli; assay: as above; conditions: Application herbicide amount 320 g/ha; foliage application
Procedure, shortened: as §1

Abutilon theophrasti = assay: as above; conditions: Application herbicide amount 320 g/ha; foliage application
Procedure, shortened: as §1

Apera spica-venti. = assay: as above; conditions: Application herbicide amount 320 g/ha; foliage application
Procedure, shortened: as §1

Avena fatua = assay: as above; conditions: Application herbicide amount 320 g/ha; foliage application
Procedure, shortened: as §1

Scirpus juncoides = assay: Test Example 2: herbicidal activity, application during weed generation in submerged conditions; conditions: Eighteenth Table; application herbicide amount 320 g/ha
Procedure, shortened: (§2)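 Scored three weeks post-application on a 0–5 scale (5: ≥90% herbicidal ratio, almost withered; 0: ≤5%). Plants raised from mixed-sown seed in submerged alluvial soil (4 cm water), 25–30 °C greenhouse; water-diluted emulsion applied onto water surface at one- to two-leaf stage, dose in g/ha.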

Monochoria vaginalis = assay: as above; conditions: Eighteenth Table; application herbicide amount 320 g/ha
Procedure, shortened: as §2

[3] = system: Echinochloa oryzacola Vasing.; assay: as above; conditions: Eighteenth Table; application herbicide amount 320 g/ha
Procedure, shortened: as §2

SMILES	g (Brassica campestris L.) effect on crop grade (Brassica campestris L.)	c (Zea mays) effect on crop grade (Zea mays)	e (Triticum aestivum) effect on crop grade (Triticum aestivum)	f (Beta vulgaris ssp. vulgaris) effect on crop grade [1]	d (Glycine max) effect on crop grade (Glycine max)	F (Digitaria ciliaris) herbicidal effect grade (Digitaria ciliaris)	R (Veronica persica) herbicidal effect grade (Veronica persica)	Q (Galium spurium) herbicidal effect grade (Galium spurium)	J (Alopecurus myosuroides) herbicidal effect grade (Alopecurus myosuroides)	K (Lolium multiflorum Lam.) herbicidal effect grade (Lolium multiflorum Lam.)	P (Stellaria media) herbicidal effect grade (Stellaria media)	O (Chenopodium album) herbicidal effect grade (Chenopodium album)	N (Amaranthus retroflexus) herbicidal effect grade (Amaranthus retroflexus)	H (Echinochloa crus-galli var. crus-galli) herbicidal effect grade [2]	M (Abutilon theophrasti) herbicidal effect grade (Abutilon theophrasti)	L (Apera spica-venti.) herbicidal effect grade (Apera spica-venti.)	I (Avena fatua) herbicidal effect grade (Avena fatua)	B (Scirpus juncoides) herbicidal ratio grade (Scirpus juncoides)	C (Monochoria vaginalis) herbicidal ratio grade (Monochoria vaginalis)	A (Echinochloa oryzicola Vasing.) herbicidal ratio grade [3]
CCN(CC)c1nnc2c(C(=O)Nc3nnc(C)o3)ccc(C(F)(F)F)n12 [1-135]	0 (Herbicidal ratio of 5% or less (almost no effect))	0 (Herbicidal ratio of 5% or less (almost no effect))	0 (Herbicidal ratio of 5% or less (almost no effect))	4 (Herbicidal ratio of 70% or more and less than 90%)	3 (Herbicidal ratio of 40% or more and less than 70%)	4 (Herbicidal ratio of 70% or more and less than 90%)	1 (Herbicidal ratio of 5% or more and less than 20%)	0 (Herbicidal ratio of 5% or less (almost no effect))	1 (Herbicidal ratio of 5% or more and less than 20%)	1 (Herbicidal ratio of 5% or more and less than 20%)	4 (Herbicidal ratio of 70% or more and less than 90%)	5 (Herbicidal ratio of 90% or more (almost completely withered))	3 (Herbicidal ratio of 40% or more and less than 70%)	4 (Herbicidal ratio of 70% or more and less than 90%)	3 (Herbicidal ratio of 40% or more and less than 70%)	1 (Herbicidal ratio of 5% or more and less than 20%)	1 (Herbicidal ratio of 5% or more and less than 20%)	2 (Herbicidal ratio of 20% or more and less than 40%)	3 (Herbicidal ratio of 40% or more and less than 70%)	2 (Herbicidal ratio of 20% or more and less than 40%)
Cc1nnc(NC(=O)c2ccc(C(F)(F)F)n3c(SCC(F)(F)F)nnc23)o1 [1-124]	0 (Herbicidal ratio of 5% or less (almost no effect))	1 (Herbicidal ratio of 5% or more and less than 20%)	0 (Herbicidal ratio of 5% or less (almost no effect))	3 (Herbicidal ratio of 40% or more and less than 70%)	3 (Herbicidal ratio of 40% or more and less than 70%)	5 (Herbicidal ratio of 90% or more (almost completely withered))	2 (Herbicidal ratio of 20% or more and less than 40%)	2 (Herbicidal ratio of 20% or more and less than 40%)	0 (Herbicidal ratio of 5% or less (almost no effect))	0 (Herbicidal ratio of 5% or less (almost no effect))	3 (Herbicidal ratio of 40% or more and less than 70%)	5 (Herbicidal ratio of 90% or more (almost completely withered))	4 (Herbicidal ratio of 70% or more and less than 90%)	5 (Herbicidal ratio of 90% or more (almost completely withered))	5 (Herbicidal ratio of 90% or more (almost completely withered))	1 (Herbicidal ratio of 5% or more and less than 20%)	2 (Herbicidal ratio of 20% or more and less than 40%)	3 (Herbicidal ratio of 40% or more and less than 70%)	1 (Herbicidal ratio of 5% or more and less than 20%)	3 (Herbicidal ratio of 40% or more and less than 70%)
CCN(CC)c1nnc2c(C(=O)Nc3nnco3)ccc(C(F)(F)F)n12 [1-138]	4 (Herbicidal ratio of 70% or more and less than 90%)	0 (Herbicidal ratio of 5% or less (almost no effect))	1 (Herbicidal ratio of 5% or more and less than 20%)	5 (Herbicidal ratio of 90% or more (almost completely withered))	3 (Herbicidal ratio of 40% or more and less than 70%)	4 (Herbicidal ratio of 70% or more and less than 90%)	5 (Herbicidal ratio of 90% or more (almost completely withered))	2 (Herbicidal ratio of 20% or more and less than 40%)	1 (Herbicidal ratio of 5% or more and less than 20%)	1 (Herbicidal ratio of 5% or more and less than 20%)	5 (Herbicidal ratio of 90% or more (almost completely withered))	5 (Herbicidal ratio of 90% or more (almost completely withered))	4 (Herbicidal ratio of 70% or more and less than 90%)	5 (Herbicidal ratio of 90% or more (almost completely withered))	3 (Herbicidal ratio of 40% or more and less than 70%)	3 (Herbicidal ratio of 40% or more and less than 70%)	2 (Herbicidal ratio of 20% or more and less than 40%)	3 (Herbicidal ratio of 40% or more and less than 70%)	3 (Herbicidal ratio of 40% or more and less than 70%)	3 (Herbicidal ratio of 40% or more and less than 70%)
Cc1nnc(NC(=O)c2ccc(C(F)(F)F)n3c(NCC(F)(F)F)nnc23)o1 [1-131]	0 (Herbicidal ratio of 5% or less (almost no effect))	0 (Herbicidal ratio of 5% or less (almost no effect))	0 (Herbicidal ratio of 5% or less (almost no effect))	3 (Herbicidal ratio of 40% or more and less than 70%)	3 (Herbicidal ratio of 40% or more and less than 70%)	4 (Herbicidal ratio of 70% or more and less than 90%)	3 (Herbicidal ratio of 40% or more and less than 70%)	0 (Herbicidal ratio of 5% or less (almost no effect))	0 (Herbicidal ratio of 5% or less (almost no effect))	0 (Herbicidal ratio of 5% or less (almost no effect))	3 (Herbicidal ratio of 40% or more and less than 70%)	5 (Herbicidal ratio of 90% or more (almost completely withered))	3 (Herbicidal ratio of 40% or more and less than 70%)	4 (Herbicidal ratio of 70% or more and less than 90%)	3 (Herbicidal ratio of 40% or more and less than 70%)	0 (Herbicidal ratio of 5% or less (almost no effect))	0 (Herbicidal ratio of 5% or less (almost no effect))	1 (Herbicidal ratio of 5% or more and less than 20%)	0 (Herbicidal ratio of 5% or less (almost no effect))	0 (Herbicidal ratio of 5% or less (almost no effect))
